The nature of the experiment: Growth inhibition of human NCI60 cells by sulforhodamine B assay. Type of experiment: functional.
Compound `COc1cc(NC(=O)c2cc(O)c(C/C=C(\C)CCC=C(C)C)c(O)c2)cc2c1O[C@]1(C)CC[C@@H](O)C(C)(C)[C@H]1C2` came in with a GI50 of 1100 nM.
For `COc1cc(NC(=O)c2cc(OC)c3ccn(C)c3c2)cc2c1O[C@]1(C)CC[C@@H](O)C(C)(C)[C@H]1C2`, the GI50 stood at 6600 nM.
In the case of `COc1cc(C(=O)Nc2cc(OC)c3ccn(C)c3c2)cc2c1O[C@]1(C)CC[C@@H](O)C(C)(C)[C@H]1C2` it was 660 nM; in that of `COc1cc(C(=O)Nc2cc(O)c(C/C=C(\C)CCC=C(C)C)c(O)c2)cc2c1O[C@]1(C)CC[C@@H](O)C(C)(C)[C@H]1C2`, 210 nM.
Regarding `COc1cc(/C=C/c2cc(O)c(C/C=C(\C)CCC=C(C)C)c(O)c2)cc2c1O[C@]1(C)CC[C@@H](O)C(C)(C)[C@H]1C2` [3-DEOXYSCHWEINFURTHIN B], it took 870 nM to inhibit growth by half (GI50). Against the preceding compound, the GI50 is about 4.1-fold higher.
For `CC(C)=CCC/C(C)=C/Cc1c(O)cc(/C=C/c2cc(O)c3c(c2)C[C@@H]2C(C)(C)[C@H](O)[C@H](O)C[C@@]2(C)O3)cc1O` [SCHWEINFURTHIN A], the GI50 was 360 nM.
